Experimental data reported in patent publication US20060079453A1, “Hla binding peptides and their uses” (priority 2002, published 2006).
Like-named read-outs stand apart in the source and are kept apart here. No end group written: not given here.

How the values were obtained:
Experiment in all cases: biochemical
Type in all cases: binding
[1] = target: HLA-A*0201 (Homo sapiens, UniProt P04439, D140Y/D185E/D98H/E176V/E277Q/G131W/G231S/I119V/I121R/I166T/I218V/L300P/L318F/N151K/N90K/P208A/P217A/Q86G/Q94H/R138H/R169H/T345S)
[2] = target: HLA-A*0202 (Homo sapiens, UniProt P04439, D140Y/D185E/D98H/E176V/E277Q/G131W/G231S/I119L/I121R/I166T/I218V/L180W/L300P/L318F/N151K/N90K/P208A/P217A/Q67R/Q86G/Q94H/R138H/R169H/T345S)
[3] = target: HLA-A*6802 (Homo sapiens, UniProt P04439, A269V/D140Y/D185E/E176V/E277Q/E87N/F33Y/G231S/I121R/I166T/I218V/L180W/L300P/L318F/N151K/P208A/P217A/Q86R/R138H/R169H/S129P/T345S/V36M)
[4] = target: HLA-A*0203 (Homo sapiens, UniProt P04439, A173T/D140Y/D185E/D98H/E277Q/G131W/G231S/I119V/I121R/I166T/I218V/L180W/L300P/L318F/N151K/N90K/P208A/P217A/Q86G/Q94H/R138H/R169H/T345S)
[5] = target: HLA-A*0206 (Homo sapiens, UniProt P04439, D140Y/D185E/D98H/E176V/E277Q/F33Y/G131W/G231S/I119V/I121R/I166T/I218V/L300P/L318F/N151K/N90K/P208A/P217A/Q86G/Q94H/R138H/R169H/T345S)
[6] = A*0201 binding affinity (expressed as an IC50)
[7] = A*0202 binding affinity (expressed as an IC50)
[8] = A*6802 binding affinity (expressed as an IC50)
[9] = A*0203 binding affinity (expressed as an IC50)
[10] = A*0206 binding affinity (expressed as an IC50)

Row | Compound | IC50 [1, 6] [nM] | IC50 [2, 7] [nM] | IC50 [3, 8] [nM] | IC50 [4, 9] [nM] | IC50 [5, 10] [nM] | IC50 [5] [nM] | IC50 [1] [nM] | IC50 [2] [nM] | IC50 [4] [nM] | IC50 [3] [nM]
1 | TLHDLCQAL [TLHDLCQAL] | 1400 | 2.7 | 70400 | 40 |  |  |  |  |  | 
2 | ILAEAMSQV | 38 | 1.1 | 34 | 1.1 |  |  |  |  |  | 
3 | FVLSLGIHV | 45 | 399 |  | 2820 | 131 |  |  |  |  | 
4 | QMTFLCVQM | 3150 | 40 |  |  | 232 |  |  |  |  | 
5 | LQLPPLERV |  |  |  |  |  | 203 | 7950 | 7710 | 13500 | 
6 | ILGPGPGL | 672 | 45 | 56100 | 530 |  |  |  |  |  | 
7 | YLKEPVHGV |  |  |  |  |  |  | 54 | 0.65 | 1.9 | 63
8 | MTSDPPIPV |  |  |  |  |  | 587 | 107 | 13 | 0.45 | 
9 | RLDILDLWV |  |  |  |  |  | 2640 | 43 |  | 1640 | > 17800
10 | MTNNPPVPV | 86 | 18 |  | 0.42 |  |  |  |  |  | 
11 | KLTPLCVPL |  |  |  |  |  |  | 15 | 0.25 | 297 | 
12 | VLMEWLKTRPI |  |  |  |  |  |  | 464 |  |  | 
13 | FLGPGPGPSV | 17 | 0.8 |  | 2.5 | 55 |  |  |  |  | 
14 | VLAEAMSQI |  |  |  |  |  | 70 | 71 | 0.15 | 0.87 | 
15 | ILAEAMASA | 22 | 0.72 |  | 0.82 | 6.8 |  |  |  |  | 
16 | VTAKELKFV | 7140 | 2690 |  | 40 | 137 |  |  |  |  | 

Row | Compound | IC50 [1, 6] [nM] | IC50 [2, 7] [nM] | IC50 [3, 8] [nM] | IC50 [4, 9] [nM] | IC50 [5, 10] [nM] | IC50 [5] [nM] | IC50 [1] [nM] | IC50 [2] [nM] | IC50 [4] [nM] | IC50 [3] [nM]
17 | KLTPLCVTM | 340 | 3.6 | 6290 |  | 197 |  |  |  |  | 
18 | VLAEAMSHA |  |  |  |  |  | 121 |  | 1.7 | 1.2 | 431
19 | QAHCNISRA | 338 |  |  |  |  |  |  |  |  | 
20 | WLNYTPGPGI |  |  |  |  |  | > 31600 |  | 4.6 | 46 | 1200
21 | QLVFGPGPGEV | 2940 |  | 447 | 50 | 4070 |  |  |  |  | 
22 | CC[C@H](C)[C@H](NC(=O)[C@H](CC(=O)O)NC(=O)[C@H](CCC(N)=O)NC(=O)[C@H](CC(C)C)NC(=O)[C@@H](N)[C@@H](C)O)C(=O)N[C@H](C(=O)N[C@@H](CC(C)C)C(=O)N[C@@H](Cc1c[nH]cn1)C(=O)N[C@@H](CC(C)C)C(=O)O)C(C)C | 22 | 4.4 |  | 46 | 781 |  |  |  |  | 
23 | NQMIFVSSI | 250 | 21 |  | 3.6 | 14 |  |  |  |  | 
24 | MTANPPVPV | 20 | 5 | 4 | 0.62 |  |  |  |  |  | 
25 | YQDPQNYEL | 79 | 18 | 167000 |  | 52 |  |  |  |  | 
26 | RLFEESLGI |  | 1.9 | 418 | 5.5 | 68 |  |  |  |  | 
27 | WLGPGPGFV |  | 4.1 | 293 | 2.2 | 530 |  |  |  |  | 
28 | AMAKAAAAT | 15100 |  | > 26700 | 84 | 37000 |  |  |  |  | 
29 | YMIKKLLKI |  | 4.6 | 63100 | 4.7 | 93 |  |  |  |  | 
30 | VLGPGPGFVTL |  | 13 | 42100 | 63 | 4770 |  |  |  |  | 
31 | QLGPGPGLMEV |  | 9.4 | 648 | 29 | 481 |  |  |  |  | 
